# Source: patent US8716475B2, “2-aminopyrimidine modulators of the histamine H4 receptor” (Janssen Pharmaceutica NV, priority 2007, dated 2014)
# pKi: −log10 of the molar value.
# Target: T1, human H4 receptor (Homo sapiens, UniProt Q9H3N8)
# T1 construct: expressed in transfected cells
# Test: Binding Assay on Recombinant Human Histamine H4 Receptor
# Conditions: [3H] histamine competition binding
# Protocol: Binding Assay on Recombinant Human Histamine H4 Receptor.
# Cell pellets from SK-N-MC cells stably or transiently transfected with human H4 receptor were used for the binding assays. Cell pellets were homogenized in 50 mM Tris/5 mM EDTA buffer and supernatants from an 800g spin were collected and recentrifuged at 30,000g for 30 min. Pellets were rehomogenized in 50 mM Tris/5 mM EDTA buffer. […] Compounds were tested in free base, hydrochloride salt, or trifluoroacetic acid form. Nonspecific binding was defined with 100 μM cold histamine. […] Membranes were harvested by rapid filtration using the 96 well Brandel system or a cell harvester using a Whatman GF/C filter or filter plates treated with 0.5% polyethylenimine (PEI), and washed 4 times with ice-cold 50 mM Tris/5 mM EDTA buffer. Filters were then dried, mixed with scintillant and radioactive counts were determined. […] Data marked with an asterisk (*) were obtained by the cell harvester method. Where activity is shown as greater than (>) a particular value, the value is the highest concentration tested.
# [1] = Table 2, membranes of SK-N-MC cells transfected with human H4 receptor, average of results
# [2] = Table 2, data marked with an asterisk (*): obtained by the cell harvester method, SK-N-MC membranes
pKi [1],pKi [2],SMILES
7.72,–,"CC(C)c1cc(NCCN)nc(N)n1 [Example 89, (2-Amino-ethyl)-6-isopropyl-pyrimidine-2,4-diamine]"
7.85,–,"CC(C)c1cc(N2CC(N)C2)nc(N)n1 [Example 90, 4-(3-Amino-azetidin-1-yl)-6-isopropyl-pyrimidin-2-ylamine]"
6.55,–,"CC(C)c1cc(N(C)CCN)nc(N)n1 [Example 92, N^4-(2-Amino-ethyl)-6-isopropyl-N^4-methyl-pyrimidine-2,4-diamine]"
6.53,–,"Nc1nc2c(c(N3CC[C@@H](N)C3)n1)COCC2 [Example 98, (R)-4-(3-Amino-pyrrolidin-1-yl)-7,8-dihydro-5H-pyrano[4,3-d]pyrimidin-2-ylamine]"
6.67,–,"CN[C@@H]1CCN(c2nc(N)nc3c2COCC3)C1 [Example 99, (R)-4-(3-Methylamino-pyrrolidin-1-yl)-7,8-dihydro-5H-pyrano[4,3-d]pyrimidin-2-ylamine]"
6.74,–,"CCCCc1nc(N)nc(N2CCCNCC2)c1OC [Example 102, 4-Butyl-6-[1,4]diazepan-1-yl-5-methoxy-pyrimidin-2-ylamine]"
–,7.66,"CCCCc1nc(N)nc(N2CC(N)C2)c1OC [Example 103, 4-(3-Amino-azetidin-1-yl)-6-butyl-5-methoxy-pyrimidin-2-ylamine]"
–,7.02,"CCCCc1nc(N)nc(N2CC[C@@H](N)C2)c1OC [Example 104, (R)-4-(3-Amino-pyrrolidin-1-yl)-6-butyl-5-methoxy-pyrimidin-2-ylamine]"
6.99,–,"CCCCc1nc(N)nc(N2CC[C@H](N)C2)c1OC [Example 105, (S)-4-(3-Amino-pyrrolidin-1-yl)-6-butyl-5-methoxy-pyrimidin-2-ylamine]"
–,7.41,"CCCCc1nc(N)nc(N2CC[C@@H](NC)C2)c1OC [Example 106, (R)-4-Butyl-5-methoxy-6-(3-methylamino-pyrrolidin-1-yl)-pyrimidin-2-ylamine]"
6.98,–,"CCCCc1nc(N)nc(N2CC[C@H](NC)C2)c1OC [Example 107, (S)-4-Butyl-5-methoxy-6-(3-methylamino-pyrrolidin-1-yl)-pyrimidin-2-ylamine]"
7.08,–,"CCCCc1nc(N)nc(N2CCN(C)CC2)c1OC [Example 108, 4-Butyl-5-methoxy-6-(4-methyl-piperazin-1-yl)-pyrimidin-2-ylamine]"
–,6.29,"CCCCc1nc(N)nc(N(C)CCN)c1OC [Example 109, N^4-(2-Amino-ethyl)-6-butyl-5-methoxy-N^4-methyl-pyrimidine-2,4-diamine]"
7.10,–,"CCCCc1nc(N)nc(NCCN)c1OC [Example 110, N^4-(2-Amino-ethyl)-6-butyl-5-methoxy-pyrimidine-2,4-diamine]"
7.48,–,"COc1c(C2CCCC2)nc(N)nc1N1CC(N)C1 [Example 111, 4-(3-Amino-azetidin-1-yl)-6-cyclopentyl-5-methoxy-pyrimidin-2-ylamine]"
7.34,–,"COc1c(C2CCCC2)nc(N)nc1N1CCCNCC1 [Example 112, 4-Cyclopentyl-6-[1,4]diazepan-1-yl-5-methoxy-pyrimidin-2-ylamine]"
6.87,–,"COc1c(C2CCCC2)nc(N)nc1N1CC[C@@H](N)C1 [Example 113, (R)-4-(3-Amino-pyrrolidin-1-yl)-6-cyclopentyl-5-methoxy-pyrimidin-2-ylamine]"

pKi [1],pKi [2],SMILES
7.15,–,"CN[C@H]1CCN(c2nc(N)nc(C3CCCC3)c2OC)C1 [Example 114, (S)-4-Cyclopentyl-5-methoxy-6-(3-methylamino-pyrrolidin-1-yl)-pyrimidin-2-ylamine]"
–,5.84,"COc1c(C2CCCC2)nc(N)nc1N(C)CCN [Example 115, N^4-(2-Amino-ethyl)-6-cyclopentyl-5-methoxy-N^4-methyl-pyrimidine-2,4-diamine]"
7.19,–,"COc1c(NCCN)nc(N)nc1C1CCCC1 [Example 116, N^4-(2-Amino-ethyl)-6-cyclopentyl-5-methoxy-pyrimidine-2,4-diamine]"
7.38,–,"COCc1cc(N2CCCNCC2)nc(N)n1 [Example 117, 4-[1,4]-Diazepan-1-yl-6-methoxymethyl-pyrimidin-2-ylamine]"
6.62,–,"COCc1cc(N2CC[C@H](N)C2)nc(N)n1 [Example 118, (S)-4-(3-Amino-pyrrolidin-1-yl)-6-methoxymethyl-pyrimidin-2-ylamine]"
6.82,–,"CN[C@H]1CCN(c2cc(COC)nc(N)n2)C1 [Example 119, (S)-4-Methoxymethyl-6-(3-methylamino-pyrrolidin-1-yl)-pyrimidin-2-ylamine]"
7.66,–,"Nc1nc(C2CC2)cc(N2CC(N)C2)n1 [Example 122, 4-(3-Amino-azetidin-1-yl)-6-cyclopropyl-pyrimidin-2-ylamine]"
8.40,–,"Nc1nc(C2CC2)cc(N2CC[C@@H](N)C2)n1 [Example 123, (R)-4-(3-Amino-pyrrolidin-1-yl)-6-cyclopropyl-pyrimidin-2-ylamine]"
8.15,–,"CN[C@H]1CCN(c2cc(C(C)C)nc(N)n2)C1 [Example 125, (S)-4-Isopropyl-6-(3-methylamino-pyrrolidin-1-yl)-pyrimidin-2-ylamine]"
7.64,–,"CC(C)c1cc(N2CC[C@H](N)C2)nc(N)n1 [Example 126, (S)-4-(3-Amino-pyrrolidin-1-yl)-6-isopropyl-pyrimidin-2-ylamine]"
8.05,–,"CC(C)(C)c1cc(N2CC[C@@H](N)C2)nc(N)n1 [Example 127, (R)-4-(3-Amino-pyrrolidin-1-yl)-6-tert-butyl-pyrimidin-2-ylamine]"
7.34,–,"CC(C)(C)c1cc(N2CC[C@H](N)C2)nc(N)n1 [Example 129, (S)-4-(3-Amino-pyrrolidin-1-yl)-6-tert-butyl-pyrimidin-2-ylamine]"
–,6.39,"CN(CCN)c1cc(C(C)(C)C)nc(N)n1 [Example 131, N^4-(2-Amino-ethyl)-6-tert-butyl-N^4-methyl-pyrimidine-2,4-diamine]"
–,6.62,"CC(C)(C)c1cc(N2CC(N)C2)nc(N)n1 [Example 133, 4-(3-Amino-azetidin-1-yl)-6-tert-butyl-pyrimidin-2-ylamine]"
8.40,–,"CCCCc1cc(N2CC[C@@H](N)C2)nc(N)n1 [Example 135, (R)-4-(3-Amino-pyrrolidin-1-yl)-6-butyl-pyrimidin-2-ylamine]"
8.70,–,"CCCCc1cc(N2CC[C@@H](NC)C2)nc(N)n1 [Example 137, (R)-4-Butyl-6-(3-methylamino-pyrrolidin-1-yl)-pyrimidin-2-ylamine]"
7.36,–,"CCCCc1cc(N(C)CCN)nc(N)n1 [Example 138, N^4-(2-Amino-ethyl)-6-butyl-N^4-methyl-pyrimidine-2,4-diamine]"

SMILES,pKi [1],pKi [2]
"Nc1nc(C2CCCC2)cc(N2CC3CNCC3C2)n1 (stereo not drawn) [Example 87, 4-Cyclopentyl-6-(hexahydro-pyrrolo[3,4-c]pyrrol-2-yl)-pyrimidin-2-ylamine]",6.48,–
"CC(C)c1cc(N2CCC3(CCCN3)C2)nc(N)n1 (stereo not drawn) [Example 91, 4-(1,7-Diaza-spiro[4.4]non-7-yl)-6-isopropyl-pyrimidin-2-ylamine]",7.08,–
"CC(C)c1cc(N2CCN(C)CC2)nc(N)n1 [Example 95, 4-Isopropyl-6-(4-methyl-piperazin-1-yl)-pyrimidin-2-ylamine]",–,8.10
"CN1CCN(c2nc(N)nc3c2COCC3)CC1 [Example 96, 4-(4-Methyl-piperazin-1-yl)-7,8-dihydro-5H-pyrano[4,3-d]pyrimidin-2-ylamine]",7.46,–
"Nc1nc2c(c(N3C[C@H]4CCCN[C@H]4C3)n1)COCC2 [Example 97, (R,R)-4-(Octahydro-pyrrolo[3,4-b]pyridin-6-yl)-7,8-dihydro-5H-pyrano[4,3-d]pyrimidin-2-ylamine]",7.70,–
"Nc1nc2c(c(N3CCNCC3)n1)COCC2 [Example 100, 4-piperazin-1-yl-7,8-dihydro-5H-pyrano[4,3-d]pyrimidin-2-ylamine]",6.58,–
"CCCCc1nc(N)nc(N2CCNCC2)c1OC [Example 101, 4-Butyl-5-methoxy-6-piperazin-1-yl-pyrimidin-2-ylamine]",7.52,–
"CN1C[C@@H]2CN(c3cc(C4CC4)nc(N)n3)C[C@@H]2C1 [Example 120, 4-Cyclopropyl-6-(cis-5-methyl-hexahydro-pyrrolo[3,4-c]pyrrol-2-yl)-pyrimidin-2-ylamine]",6.95,–
"Nc1nc(C2CC2)cc(N2CCNCC2)n1 [Example 121, 4-Cyclopropyl-6-piperazin-1-yl-pyrimidin-2-ylamine]",8.52,–
"Nc1nc(C2CC2)cc(N2C[C@H]3CNC[C@H]3C2)n1 [Example 124, 4-Cyclopropyl-6-(cis-hexahydro-pyrrolo[3,4-c]pyrrol-2-yl)-pyrimidin-2-ylamine]",< 5.00,–
"CN1C[C@@H]2CN(c3cc(C(C)(C)C)nc(N)n3)C[C@@H]2C1 [Example 128, 4-tert-Butyl-6-(cis-5-methyl-hexahydro-pyrrolo[3,4-c]pyrrol-2-yl)-pyrimidin-2-ylamine]",7.72,–
"CC(C)(C)c1cc(N2C[C@H]3CNC[C@H]3C2)nc(N)n1 [Example 132, 4-tert-Butyl-6-(cis-hexahydro-pyrrolo[3,4-c]pyrrol-2-yl)-pyrimidin-2-ylamine]",–,6.45
"CC(C)(C)c1cc(N2CC3CCC(C2)N3)nc(N)n1 [Example 134, 4-tert-Butyl-6-(3,8-diaza-bicyclo[3.2.1]oct-3-yl)-pyrimidin-2-ylamine]",6.89,–
"CCCCc1cc(N2CCN(C)CC2)nc(N)n1 [Example 136, 4-Butyl-6-(4-methyl-piperazin-1-yl)-pyrimidin-2-ylamine]",9.00,–
